This note sets out measurements from US6020521A, “Macrolide LHRH antagonists” (Abbott Laboratories, priority 1998, dated 2000).

For the assay, the target named is T1, LHRH rat pituitary receptor (Rattus norvegicus, UniProt P30969).
T1 construct: from tissue; host or cells: rat pituitary
T1 sequence (P30969 1-327): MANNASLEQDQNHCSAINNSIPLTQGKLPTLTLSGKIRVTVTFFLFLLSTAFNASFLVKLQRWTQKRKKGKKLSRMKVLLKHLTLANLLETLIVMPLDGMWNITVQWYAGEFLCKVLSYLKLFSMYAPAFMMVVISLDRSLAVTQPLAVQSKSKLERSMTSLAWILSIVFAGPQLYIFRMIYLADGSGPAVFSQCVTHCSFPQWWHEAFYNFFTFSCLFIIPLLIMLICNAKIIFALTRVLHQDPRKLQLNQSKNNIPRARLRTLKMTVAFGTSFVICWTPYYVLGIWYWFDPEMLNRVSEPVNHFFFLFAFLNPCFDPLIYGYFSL
Briefly: LHRH rat pituitary receptor binding (pKI). The following applies: receptor binding affinity, negative logarithm of the equilibrium dissociation constants. On the procedure:
Representative compounds of the present invention were evaluated in in vitro tests for LHRH rat pituitary receptor binding (pKI) and for LH inhibition from rat pituitary cells for antagonist potency (pA2). The tests employed the methods detailed in F. Haviv, et al. J. Med. Chem., 32: 2340-2344 (1989). The receptor binding affinity (pKI) is the negative logarithm of the equilibrium dissociation constants.
`CC[C@H]1OC(=O)[C@H](C)[C@@H](OC(=O)N2C(=O)OC[C@@H]2C)[C@H](C)[C@@H](O[C@@H]2O[C@H](C)C[C@H](NC(C)C)[C@H]2O)[C@](C)(OC)C[C@@H](C)C(=O)[C@H](C)[C@H]2N(CCc3ccc(Cl)cc3)C(=O)O[C@]12C` [Example 7, 11-Deoxy-11-[carboxy(4-chlorophenethyl)amino]-5-O-(3'-bis-N-desmethyl-3'-N-isopropyl)desosaminyl-3-O-[4-(S)-methyl-oxazolidin-2-one]carbamoyl-6-O-methyl-erythronolide A 11,12-(cyclic carbamate)] gave a Ki of 3.55 nM.
Compound `CC[C@H]1OC(=O)[C@H](C)[C@@H](OC(=O)N2COC[C@H]2C)[C@H](C)[C@@H](O[C@@H]2O[C@H](C)C[C@H](N(C)C(C)C)[C@H]2O)[C@](C)(OC)C[C@@H](C)C(=O)[C@H](C)[C@H]2N(CCc3ccc(Cl)cc3)C(=O)O[C@]12C` [Example 8, 11-Deoxy-11-[carboxy(4-chlorophenethyl)amino]-5-O-(3'-N-desmethyl-3'-N-isopropyl)desosaminyl-3-O-[4-(R)-methyl-oxazolidine]carbamoyl-6-O-methyl-erythronolide A 11,12-(cyclic carbamate)] had an inhibitory constant (Ki) of 11.7 nM.
`CC[C@H]1OC(=O)[C@H](C)[C@@H](OC(=O)C2CCOC2)[C@H](C)[C@@H](O[C@@H]2O[C@H](C)C[C@H](N(C)C(C)C)[C@H]2O)[C@](C)(OC)C[C@@H](C)C(=O)[C@H](C)[C@H]2N(CCc3ccc(Cl)cc3)C(=O)O[C@]12C` (stereo partly drawn) [Example 9, 11-Deoxy-11-[carboxy(4-chlorophenethyl)amino]-5-O-(3'-N-desmethyl-3'-N-isopropyl)desosaminyl-3-O-(tetrahydro-3-furoyl)-6-O-methyl-erythronolide A 11 12-(cyclic carbamate)]: the “p KI” value was found to be 7.85.
Same read-out and setting: with `CCC1OC(=O)C(C)C(OC(=O)C2CCOC2)C(C)C(OC2OC(C)CC(NC(C)C)C2O)C(C)(OC)CC(C)C(=O)C(C)C2N(CCc3ccc(Cl)cc3)C(=O)OC12C` (stereo not drawn) [Example 10, 11-Deoxy-11-[carboxy(4-chlorophenethyl)amino]-5-O-(3'-bis-N-desmethyl-3'-N-isopropyl)desosaminyl-3-O-(tetrahydro-3-furoyl)-6-O-methyl-erythronolide A 11,12-(cyclic carbamate)] the figure was 8.09.
Take `CC[C@H]1OC(=O)[C@H](C)[C@@H](OC(=O)N2C(=O)OC[C@@H]2C)[C@H](C)[C@@H](O[C@@H]2O[C@H](C)C[C@H](N(C)C)[C@H]2O)[C@](C)(OC)C[C@@H](C)C(=O)[C@H](C)[C@H]2N(CCc3ccc(Cl)c(Cl)c3)C(=O)O[C@]12C` [Example 11, 11-Deoxy-11-[carboxy(3,4-dichlorophenethyl)amino]-3-O-[4-(S)-methyl-oxazolidin-2-one]carbamoyl-5-O-desosaminyl-6-O-methyl-erythronolide A 11,12-(cyclic carbamate)]: the inhibition constant Ki was 3.16 nM.
Still for that read-out and setting: with `CC[C@H]1OC(=O)[C@H](C)[C@@H](OC(=O)N2C(=O)OC[C@@H]2C)[C@H](C)[C@@H](O[C@@H]2O[C@H](C)C[C@H](N(C)C3CCC3)[C@H]2O)[C@](C)(OC)C[C@@H](C)C(=O)[C@H](C)[C@H]2N(CCc3ccc(Cl)c(Cl)c3)C(=O)O[C@]12C` [Example 13, 11-Deoxy-11-[carboxy(3,4-dichlorophenethyl)amino]-3-O-[4-(S)-methyl-oxazolidin-2-one]carbamoyl-5-O-(3'-N-desmethyl-3'-N-cyclobutyl)desosaminyl-6-O-methyl-erythronolide A 11,12-(cyclic carbamate)] the figure was 3.09 nM; with `CC[C@H]1OC(=O)[C@H](C)[C@@H](OC(=O)N2C(=O)OC[C@@H]2C)[C@H](C)[C@@H](O[C@@H]2O[C@H](C)C[C@H](N(C)C3CCCCC3)[C@H]2O)[C@](C)(OC)C[C@@H](C)C(=O)[C@H](C)[C@H]2N(CCc3ccc(Cl)c(Cl)c3)C(=O)O[C@]12C` [Example 15, 11-Deoxy-11-[carboxy(3,4-dichlorophenethyl)amino]-3-O-[4-(S)-methyl-oxazolidin-2-one]carbamoyl-5-O-(3'-N-desmethyl-3'-N-cyclohexyl)desosaminyl-6-O-methyl-erythronolide A 11,12-(cyclic carbamate)], 3.89 nM.
With `CCCN(C)[C@H]1C[C@@H](C)O[C@@H](O[C@@H]2[C@@H](C)[C@H](OC(=O)N3C(=O)OC[C@@H]3C)[C@@H](C)C(=O)O[C@H](CC)[C@@]3(C)OC(=O)N(CCc4ccc(Cl)c(Cl)c4)[C@@H]3[C@@H](C)C(=O)[C@H](C)C[C@@]2(C)OC)[C@@H]1O` [Example 16, 11-Deoxy-11-[carboxy(3,4-dichlorophenethyl)amino]-3-O-[4-(S)-methyl-oxazolidin-2-one]carbamoyl-5-O-(3'-N-desmethyl-3'-N-n-propyl)desosaminyl-6-O-methyl-erythronolide A 11,12-(cyclic carbamate)], the Ki is 3.98 nM.
Turning to `CC[C@H]1OC(=O)[C@H](C)[C@@H](OC(=O)N2C(=O)OC[C@@H]2C)[C@H](C)[C@@H](O[C@@H]2O[C@H](C)C[C@H](N(C)CC(C)C)[C@H]2O)[C@](C)(OC)C[C@@H](C)C(=O)[C@H](C)[C@H]2N(CCc3ccc(Cl)c(Cl)c3)C(=O)O[C@]12C` [Example 17, 11-Deoxy-11-[carboxy(3,4-dichlorophenethyl)amino]-3-O-[4-(S)-methyl-oxazolidin-2-one]carbamoyl-5-O-(3'-N-desmethyl-3'-N-isobutyl)desosaminyl-6-O-methyl-erythronolide A 11,12-(cyclic carbamate)], the affinity, expressed as Ki, was 0.562 nM.
For `CC[C@H]1OC(=O)[C@H](C)[C@@H](OC(=O)N2C(=O)OC[C@@H]2C)[C@H](C)[C@@H](O[C@@H]2O[C@H](C)C[C@H](N(C)CC3CCC3)[C@H]2O)[C@](C)(OC)C[C@@H](C)C(=O)[C@H](C)[C@H]2N(CCc3ccc(Cl)c(Cl)c3)C(=O)O[C@]12C` [Example 18, 11-Deoxy-11-[carboxy(3,4-dichlorophenethyl)amino]-3-O-[4-(S)-methyl-oxazolidin-2-one]carbamoyl-5-O-(3'-N-desmethyl-3'-N-cyclobutylmethyl)desosaminyl-6-O-methyl-erythronolide A 11,12-(cyclic carbamate)], the Ki was 0.933 nM.
For `CC[C@H]1OC(=O)[C@H](C)[C@@H](OC(=O)N2C(=O)OC[C@@H]2C)[C@H](C)[C@@H](O[C@@H]2O[C@H](C)C[C@H](N(CC)C(C)C)[C@H]2O)[C@](C)(OC)C[C@@H](C)C(=O)[C@H](C)[C@H]2N(CCc3ccc(Cl)c(Cl)c3)C(=O)O[C@]12C` [Example 20, 11-Deoxy-11-[carboxy(3,4-dichlorophenethyl)amino]-3-O-[4-(S)-methyl-oxazolidin-2-one]carbamoyl-5-O-(3'-bis-N-desmethyl-3'-N-ethyl-3'-N-isopropyl)desosaminyl-6-O-methyl-erythronolide A 11,12-(cyclic carbamate)], affinity was put at a Ki of 0.589 nM.
Same read-out and setting: for `CCCN(C(C)C)[C@H]1C[C@@H](C)O[C@@H](O[C@@H]2[C@@H](C)[C@H](OC(=O)N3C(=O)OC[C@@H]3C)[C@@H](C)C(=O)O[C@H](CC)[C@@]3(C)OC(=O)N(CCc4ccc(Cl)c(Cl)c4)[C@@H]3[C@@H](C)C(=O)[C@H](C)C[C@@]2(C)OC)[C@@H]1O` [Example 21, 11-Deoxy-11-[carboxy(3,4-dichlorophenethyl)amino]-3-O-[4-(S)-methyl-oxazolidin-2-one]carbamoyl-5-O-(3'-bis-N-desmethyl-3'-N-n-propyl-3'-N-isopropyl)desosaminyl-6-O-methyl-erythronolide A 11,12-(cyclic carbamate)] the value was 0.245 nM.
In the case of `CC[C@H]1OC(=O)[C@H](C)[C@@H](OC(=O)N2C(=O)OC[C@@H]2C)[C@H](C)[C@@H](O[C@@H]2O[C@H](C)C[C@H](N(CC3CC3)C(C)C)[C@H]2O)[C@](C)(OC)C[C@@H](C)C(=O)[C@H](C)[C@H]2N(CCc3ccc(Cl)c(Cl)c3)C(=O)O[C@]12C` [Example 22, 11-Deoxy-11-[carboxy(3,4-dichlorophenethyl)amino]-3-O-[4-(S)-methyl-oxazolidin-2-one]carbamoyl-5-O-(3'-bis-N-desmethyl-3'-N-cyclopropylmethyl-3'-N-isopropyl)desosaminyl-6-O-methyl-erythronolide A 11,12-(cyclic carbamate)], the affinity corresponds to a Ki of 0.0741 nM.
Still for that read-out and setting: for `CC[C@H]1OC(=O)[C@H](C)[C@@H](OC(=O)N2C(=O)OC[C@@H]2C)[C@H](C)[C@@H](O[C@@H]2O[C@H](C)C[C@H](N(C)CC3CC3)[C@H]2O)[C@](C)(OC)C[C@@H](C)C(=O)[C@H](C)[C@H]2N(CCc3ccc(Cl)cc3)C(=O)O[C@]12C` [Example 23, 11-Deoxy-11-[carboxy(4-chlorophenethyl)amino]-3-O-[4-(S)-methyl-oxazolidin-2-one]carbamoyl-5-O-(3'-N-desmethyl-3'-N-cyclopropylmethyl)desosaminyl-6-O-methyl-erythronolide A 11,12-(cyclic carbamate)] the value was 1.45 nM; for `CC[C@H]1OC(=O)[C@H](C)[C@@H](OC(=O)N2C(=O)OC[C@@H]2C)[C@H](C)[C@@H](O[C@@H]2O[C@H](C)C[C@H](N(C)C3CCC3)[C@H]2O)[C@](C)(OC)C[C@@H](C)C(=O)[C@H](C)[C@H]2N(CCc3ccc(Cl)cc3)C(=O)O[C@]12C` [Example 24, 11-Deoxy-11-[carboxy(4-chlorophenethyl)amino]-3-O-[4-(S)-methyl-oxazolidin-2-one]carbamoyl-5-O-(3'-N-desmethyl-3'-N-cyclobutyl)desosaminyl-6-O-methyl-erythronolide A 11,12-(cyclic carbamate)], 0.251 nM.

A word on the Ki: it is a dissociation constant, usually derived from enzyme kinetics or from competition with a known ligand. A high value points to lower affinity.
